Measured values published in patent publication US20240188568A1, “ENVIRONMENTALLY FRIENDLY COMPOSITIONS AND METHODS OF THEIR USE FOR PROMOTING THE GROWTH OF TURFGRASS OVER WEEDS” (Edaphix, LLC, priority 2021, published 2024).

Legend:
perennial grasses = assay: Turfgrass test plots, Bozeman, MT: healthy perennial grass cover and turf stress; assay type: in vivo; settings: healthy perennial grass cover averaged over each treatment category, 21 months (Table 3)
Text: (§1) Initially, a series of small turfgrass test plots was studied to gather preliminary information that helped guide the establishment of this larger, long-term study involving multiple rates and formulations. The test plots of this experiment were established in a weedy turfgrass location within the Bridger Creek Subdivision Community Association, Phase 1, Section 31, Township 1 South, Range 6 East, P.M.M., City of Bozeman, Gallatin County, Montana. The experimental site was established in a location with approximately 20 inches of annual precipitation, with annual maximum precipitation amounts observed in May and June. Winter conditions with frozen ground prevail during approximately 5 months of the year (November-March). Soils have high organic matter content in the upper six inches and are underlain by floodplain gravels and a water table 3-15 feet below ground surface. […]
(§2) The plots were typically 50 square feet (FIG. 1). Vegetation cover measurements were made using a frame placed on the turf and an estimate was calculated for the proportion of perennial grasses and weeds in each frame (FIG. 2). […] Since installation of the first plots, they have been monitored 5 times over a period of 21 months for vegetation cover. […]
The boron-only plots caused turf stress and yellowing. Immediately following application in monitoring, healthy and unhealthy/stressed turf was measured based on tissue color. […]

turf weeds = assay: Turfgrass test plots, Bozeman, MT: weed cover; assay type: in vivo
Text: as §1, with “surface. The primary turf weeds at this location in their order of relative prevalence are clover, dandelion, creeping Charlie, oxeye daisy, black medic and Canadian thistle.” for “surface.”
as §2

seed geranium = settings: in combination with nitrogen, phosphorus, and potassium; Lee and others (1996); cited from earlier work
[1] = 2005 carcinogen assessment guidelines; cited from earlier work
French marigold = settings: Jong et al. (1996); cited from earlier work
chlorophyllitic plants = settings: as little as; cited from earlier work

Compound: O=C(O)COc1ccc(Cl)cc1Cl [2-4 D, 2,4-Dichlorophenoxyacetic acid]
- Average Percent Ground Cover For 21-Month Monitoring Period, Turf Grass (perennial grasses): 80%
- weed cover, typical (turf weeds; typical value over the first 2 years of monitoring (FIG. 3), control about 50%): ~20%
- Average Percent Ground Cover For 21-Month Monitoring Period, Weeds (turf weeds; weed cover averaged over each treatment category, 21 months (Table 3)): 13%

Compound: [Cu] [Cu, copper]
- concentration of nutrient solution inducing micronutrient toxicity symptoms (seed geranium): 500 ng/mL

Compound: [Mo] [Mo, molybdenum]
- concentration of nutrient solution inducing micronutrient toxicity symptoms (seed geranium): 250 ng/mL

Compound: [Zn] [Zn, zinc]
- concentration of nutrient solution inducing micronutrient toxicity symptoms (seed geranium): 500 ng/mL

Compound: OB(O)O [boric acid]
- U.S. EPA carcinogenicity classification [1]: not likely to be carcinogenic to humans

Compound: [B] [boron]
- concentration of nutrient solution inducing micronutrient toxicity symptoms (seed geranium): 500 ng/mL
- concentration inducing micro-nutrient toxicity (French marigold): 500 ng/mL

Compound: O=C(O)CNCP(=O)(O)O [glyphosate]
- application rate effective at causing photosynthetic disruption (chlorophyllitic plants): 0.75 pounds active ingredient per acre

Compound: borate salts
- U.S. EPA carcinogenicity classification [1]: not likely to be carcinogenic to humans
